# According to ChEMBL document CHEMBL4043086, “Facile access to pseudo-thio-1,2-dimannoside, a new glycomimetic DC-SIGN antagonist” (Bioorg Med Chem, 2017):
# Target: T1, CD209 antigen (Homo sapiens, UniProt Q9NNX6)
# T1 sequence (Q9NNX6 whole entry): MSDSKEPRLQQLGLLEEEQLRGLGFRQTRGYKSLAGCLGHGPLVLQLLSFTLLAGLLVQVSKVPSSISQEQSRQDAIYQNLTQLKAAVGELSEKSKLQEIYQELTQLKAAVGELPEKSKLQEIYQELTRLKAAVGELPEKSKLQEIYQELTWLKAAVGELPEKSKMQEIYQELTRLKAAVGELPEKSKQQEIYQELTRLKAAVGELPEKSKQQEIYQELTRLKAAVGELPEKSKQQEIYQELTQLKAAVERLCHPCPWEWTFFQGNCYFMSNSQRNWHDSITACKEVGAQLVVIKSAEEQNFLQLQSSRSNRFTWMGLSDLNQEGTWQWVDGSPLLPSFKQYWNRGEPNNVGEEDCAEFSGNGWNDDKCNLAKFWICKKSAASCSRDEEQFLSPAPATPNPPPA
# Assay: Inhibition of binding of immobilized mannosylated BSA to DC-SIGN extracellular domain (66 to 404 residues) (unknown origin) expressed in Escherichia coli by SPR assay
row,IC50 [µM],Structure (SMILES)
1,776,COC(=O)[C@H]1C[C@H](OC(=O)C(C)(C)C)[C@@H](S[C@H]2O[C@H](CO)[C@@H](O)[C@H](O)[C@@H]2O)C[C@@H]1C(=O)OC
2,776,COC(=O)[C@H]1C[C@H](OC)[C@@H](S[C@H]2O[C@H](CO)[C@@H](O)[C@H](O)[C@@H]2O)C[C@@H]1C(=O)OC
3,720,COC(=O)[C@H]1C[C@H](OC)[C@@H](O[C@H]2O[C@H](CO)[C@@H](O)[C@H](O)[C@@H]2O)C[C@@H]1C(=O)OC
